Assay results taken from PubChem BioAssay (NCI).
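Compound exposure: 48 hours, 5 concentrations, 96-well plates. The concentration for 50% growth inhibition is given as GI50. TGI: concentration producing complete growth inhibition.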

Tests used:
Experiment in all cases: DTP human tumour cell line panel, 48 h; in the data active = GI50 below about 0.43 µM; inactive = the rest
[1] = tested on: SF-539 CNS
[2] = tested on: OVCAR-4 ovarian
[3] = tested on: SK-MEL-28 melanoma
[4] = tested on: HCC-2998 colon
[5] = tested on: NCI-H226 lung
[6] = tested on: HS 578T breast
[7] = tested on: TK-10 renal
[8] = tested on: SF-268 CNS
[9] = tested on: SNB-75 CNS
[10] = tested on: ACHN renal
[11] = tested on: U251 CNS
[12] = tested on: SK-MEL-5 melanoma
[13] = tested on: DU-145 prostate
[14] = tested on: HOP-92 NSCLC
[15] = tested on: SW-620 colon
[16] = tested on: SR leukemia
[17] = tested on: HCT-15 colon
[18] = tested on: IGROV1 ovarian
[19] = tested on: EKVX NSCLC
[20] = tested on: BT-549 breast
[21] = tested on: MOLT-4 leukemia
[22] = tested on: UACC-257 melanoma
[23] = tested on: UACC-62 melanoma
[24] = tested on: HT29 colon
[25] = tested on: OVCAR-8 ovarian
[26] = tested on: HCT-116 colon
[27] = tested on: CAKI-1 renal
[28] = tested on: SNB-19 CNS
[29] = tested on: UO-31 renal
[30] = tested on: SF-295 CNS
[31] = tested on: KM12 colon
[32] = tested on: OVCAR-3 ovarian
[33] = tested on: CCRF-CEM leukemia
[34] = tested on: COLO 205 colon
[35] = tested on: OVCAR-5 ovarian
[36] = tested on: T-47D breast
[37] = tested on: 786-0 renal
[38] = tested on: LOX IMVI melanoma
[39] = tested on: SK-MEL-2 melanoma
[40] = tested on: A498 renal
[41] = tested on: M14 melanoma
[42] = tested on: HL-60(TB) leukemia
[43] = tested on: MDA-MB-435
[44] = tested on: A549 NSCLC
[45] = tested on: NCI-H522 lung
[46] = tested on: RXF 393 renal
[47] = tested on: K-562 leukemia
[48] = tested on: MCF7 breast
[49] = tested on: NCI/ADR-RES ovarian
[50] = tested on: HOP-62 NSCLC
[51] = tested on: MDA-MB-231 breast
[52] = tested on: NCI-H460 lung
[53] = tested on: MALME-3M melanoma
[54] = tested on: RPMI-8226 leukemia
[55] = tested on: PC-3 prostate
[56] = tested on: SN12C renal
[57] = tested on: SK-OV-3 ovarian
[58] = tested on: NCI-H23 lung

CN(C)CCNc1ccc2ncc(C#Cc3cncc(C(=O)Nc4ccc(CN5CCN(C)CC5)c(C(F)(F)F)c4)c3)n2n1
7.87 µM: TGI [23]
1.03 µM: TGI [48]
2.24 µM: TGI [15]
9.35 µM: TGI [36]
5.17 µM: TGI [33]
1.18 µM: TGI [52]
9.93 µM: TGI [57]
3.42 µM: TGI [21]
4.36 µM: TGI [7]
0.918 µM: TGI [31]
2.39 µM: TGI [2]
1.41 µM: TGI [46]
0.982 µM: TGI [9]
3.47 µM: TGI [55]
9.7 µM: TGI [40]
3.43 µM: TGI [41]
active: GI50 [1] 0.205 µM | GI50 [9] 0.185 µM | GI50 [14] 0.181 µM | GI50 [16] 0.0601 µM | GI50 [21] 0.226 µM | GI50 [26] 0.247 µM | GI50 [31] 0.0765 µM | GI50 [33] 0.0284 µM | GI50 [34] 0.169 µM | GI50 [47] 0.13 µM | GI50 [48] 0.154 µM | GI50 [52] 0.406 µM
1.83 µM: TGI [58]
12 µM: TGI [3]
2.65 µM: TGI [4]
1.47 µM: TGI [8]
2.46 µM: TGI [37]
inactive: GI50 [2] 0.743 µM | GI50 [3] 5.74 µM | GI50 [4] 0.953 µM | GI50 [5] 0.483 µM | GI50 [6] 0.45 µM | GI50 [7] 1.47 µM | GI50 [8] 0.644 µM | GI50 [10] 1.77 µM | GI50 [11] 0.734 µM | GI50 [12] 6 µM | GI50 [13] 1 µM | GI50 [15] 0.589 µM | GI50 [17] 1.57 µM | GI50 [18] 0.955 µM | GI50 [19] 1.53 µM | GI50 [20] 0.987 µM | GI50 [22] 4.29 µM | GI50 [23] 1.77 µM | GI50 [24] 0.477 µM | GI50 [25] 0.672 µM | GI50 [27] 0.713 µM | GI50 [28] 0.95 µM | GI50 [29] 1.87 µM | GI50 [30] 1.15 µM | GI50 [32] 0.844 µM | GI50 [35] 1.33 µM | GI50 [36] 1.81 µM | GI50 [37] 1.04 µM | GI50 [38] 0.548 µM | GI50 [39] 1.11 µM | GI50 [40] 3.1 µM | GI50 [41] 1.01 µM | GI50 [42] 0.612 µM | GI50 [43] 0.746 µM | GI50 [44] 0.936 µM | GI50 [45] 0.652 µM | GI50 [46] 0.683 µM | GI50 [49] 9.96 µM | GI50 [50] 0.564 µM | GI50 [51] 0.463 µM | GI50 [53] 0.672 µM | GI50 [54] 1.15 µM | GI50 [55] 0.664 µM | GI50 [56] 0.774 µM | GI50 [57] 2.69 µM | GI50 [58] 0.764 µM
2.42 µM: TGI [47]
6 µM: TGI [17]
2.84 µM: TGI [25]
1.2 µM: TGI [38]
2.77 µM: TGI [56]
0.541 µM: TGI [34]
6.58 µM: TGI [10]
47.7 µM: TGI [49]
3.66 µM: TGI [27]
12.5 µM: TGI [12]
1.81 µM: TGI [42]
11.1 µM: TGI [22]
1.9 µM: TGI [51]
4.51 µM: TGI [43]
3.98 µM: TGI [18]
2.9 µM: TGI [54]
2.95 µM: TGI [32]
7.23 µM: TGI [30]
1.89 µM: TGI [11]
1.5 µM: TGI [26]
1.44 µM: TGI [45]
1.92 µM: TGI [6]
2.13 µM: TGI [50]
5.54 µM: TGI [19]
5.46 µM: TGI [44]
3.05 µM: TGI [5] | TGI [39]
8.04 µM: TGI [29]
1.95 µM: TGI [20] | TGI [24]
4.01 µM: TGI [28]
1.62 µM: TGI [16] | TGI [53]
0.862 µM: TGI [1]
1.85 µM: TGI [14]
5.38 µM: TGI [35]
4.18 µM: TGI [13]

CN1C(=O)N(c2ccccc2)C2N=C(N/N=C/c3ccccc3)SC21 (stereo unspecified)
8.04 µM: TGI [24]
7.7 µM: TGI [9]
67.5 µM: TGI [12]
53.2 µM: TGI [4]
19.9 µM: TGI [52]
6.58 µM: TGI [42]
> 100 µM: TGI [2] | TGI [3] | TGI [6] | TGI [7] | TGI [8] | TGI [10] | TGI [11] | TGI [13] | TGI [14] | TGI [15] | TGI [16] | TGI [17] | TGI [18] | TGI [19] | TGI [21] | TGI [22] | TGI [23] | TGI [25] | TGI [26] | TGI [27] | TGI [28] | TGI [29] | TGI [30] | TGI [31] | TGI [32] | TGI [33] | TGI [35] | TGI [36] | TGI [37] | TGI [38] | TGI [39] | TGI [40] | TGI [44] | TGI [47] | TGI [48] | TGI [49] | TGI [50] | TGI [54] | TGI [55] | TGI [56] | TGI [57]
7.91 µM: TGI [1]
13.7 µM: TGI [20]
3.16 µM: TGI [46]
82.6 µM: TGI [51]
66.6 µM: TGI [5]
1.58 µM: TGI [45]
0.508 µM: TGI [43]
5.16 µM: TGI [34]
active: GI50 [9] 0.363 µM | GI50 [16] 0.38 µM | GI50 [43] 0.203 µM | GI50 [45] 0.304 µM
inactive: GI50 [1] 1.34 µM | GI50 [2] 14.5 µM | GI50 [3] 16.8 µM | GI50 [4] 2.25 µM | GI50 [5] 2.28 µM | GI50 [6] 1.7 µM | GI50 [7] > 100 µM | GI50 [8] 5.49 µM | GI50 [10] 5.19 µM | GI50 [11] 1.83 µM | GI50 [12] 6.05 µM | GI50 [13] 3.61 µM | GI50 [14] 0.648 µM | GI50 [15] 0.659 µM | GI50 [17] 0.553 µM | GI50 [18] 3.86 µM | GI50 [19] 3.73 µM | GI50 [20] 0.885 µM | GI50 [21] 2.38 µM | GI50 [22] 28.7 µM | GI50 [23] 0.577 µM | GI50 [24] 0.935 µM | GI50 [25] 3.56 µM | GI50 [26] 0.71 µM | GI50 [27] 0.685 µM | GI50 [28] 3.77 µM | GI50 [29] 3.18 µM | GI50 [30] 0.622 µM | GI50 [31] 0.819 µM | GI50 [32] 0.556 µM | GI50 [33] 1.93 µM | GI50 [34] 1.52 µM | GI50 [35] 4.22 µM | GI50 [36] 2.93 µM | GI50 [37] 4.21 µM | GI50 [38] 0.931 µM | GI50 [39] 1.1 µM | GI50 [40] > 100 µM | GI50 [42] 0.452 µM | GI50 [44] 2.48 µM | GI50 [46] 0.873 µM | GI50 [47] 0.447 µM | GI50 [48] 0.456 µM | GI50 [49] 1.05 µM | GI50 [50] 2.5 µM | GI50 [51] 3.62 µM | GI50 [52] 1.04 µM | GI50 [54] 3.24 µM | GI50 [55] 1.59 µM | GI50 [56] 4.46 µM | GI50 [57] 2.82 µM
